Data published in US4071559A, “Pharmaceutically active 2-omega-aminoalkoxydiphenyls” (Mitsubishi Chemical Industries Limited, priority 1975, dated 1978).
Structures can show the parent of a compound that is named as a salt.

Columns and labels:
tremorine induced tremor = assay: Tremorine induced tremor in mice (central anticholinergic effect); type: in vivo; conditions: for ED50: Mus musculus, ip, tremorine induced tremor, read-out: Antitremorine Effect ED50
Method: (§1) The compounds were administered intraperitoneally and the activities of the compounds were compared with those of Amitriptyline.

[1] = system: reserpine induced hypothermia; assay: Antagonism of reserpine induced hypothermia in mice (antireserpine / antidepressant activity); type: in vivo; conditions: i.p.; for Antireserpine activity, Relative Potency: reserpine 5 mg/kg i.p., Amitriptyline = 1
Method: as §1

neurological deficit = assay: Traction test (neurological deficit; muscle relaxant action; CNS depressant activity); type: in vivo; conditions: mice; for ED50: Mus musculus, ip, traction test
[2] = system: electroshock induced tonic extensor; assay: Antagonism of electroshock induced tonic extensor (anticonvulsant activity); type: in vivo; conditions: Mus musculus, ip; mice; dose which prevents 50% of response
in vivo = conditions: mouse, ip
[3] = system: spontaneous motor activity; assay: Spontaneous motor activity by ANIMEX apparatus (CNS depressant activity); type: in vivo; conditions: Mus musculus, ip, mice, i.p., read-out: Spontaneous Motor Activity Depression ED50
mice = conditions: i.p., compared with Amitriptyline

| SMILES | ED50 (tremorine induced tremor) [mg/kg] | Antireserpine activity, Relative Potency [1] | ED50 (neurological deficit) [mg/kg] | ED50 [2] [mg/kg] | LD50 (in vivo) [mg/kg] | ED50 [3] [mg/kg] | anticholinergic action (in words) (tremorine induced tremor; i.p., compared with Amitriptyline) | antireserpine activity (in words) ([1]; compared with Amitriptyline) | toxicity (in words) (mice) | CNS depressant action (in words) (neurological deficit; i.p., traction test and spontaneous motor activity) |
| --- | --- | --- | --- | --- | --- | --- | --- | --- | --- | --- |
| NCCCCOc1ccccc1-c1ccccc1 [2-(4-aminobutoxy)diphenyl hydrochloride] | 60 | 0.59 | 50 | 14 | 137 | 40 |  |  |  |  |
| CN(C)CCCCOc1ccccc1-c1ccccc1 [2-(4-dimethylaminobutoxy)diphenyl hydrochloride] |  | 0.45 |  |  | 100 |  |  |  |  |  |
| CNCCCCOc1ccccc1-c1ccccc1 [2-(4-methylaminobutoxy)diphenyl hydrochloride] | 20 | 0.99 | 40 | 14 | 78 | 30 | weak | comparable to that of Amitriptyline | low toxicity | weak |
